# Measurements taken from patent US9850283B2, “Macrocyclic inhibitors of the PD-1/PD-L1 and CD80(B7-1)/PD-L1 protein/protein interactions” (BRISTOL-MYERS SQUIBB COMPANY, priority 2013, dated 2017).
# Where two headings read alike, the source gives them in different places. Starred links: 1 amine or outer side, 2 acyl side, 3 side chain; linkers in the order of their positions; H or OH if unused. Positions of bridges follow the written chain, without caps; N, C: chain ends. Non-standard residues stand in square brackets, D forms with d. Residues, ends and D or L forms follow the SMILES beside them. ξ: configuration not given here. X5 = CCCOc1ccc(-c2[nH]c3ccccc3c2C[C@H](N[*:1])C(=O)[*:2])cc1; Trp(5-OH) = N[C@@H](Cc1c[nH]c2ccc(O)cc12)C(=O)O; Phe(4-CH2NH2) = NCc1ccc(C[C@H](N)C(=O)O)cc1; Pro(trans-4-F) = O=C(O)[C@@H]1C[C@@H](F)CN1; Bta = N[C@@H](Cc1csc2ccccc12)C(=O)O; ξPro(4R-OH) = O=C(O)C1C[C@@H](O)CN1; Hyp = O=C(O)[C@@H]1C[C@@H](O)CN1; NMeF = CN[C@@H](Cc1ccccc1)C(=O)O; AllylGly = C=CC[C@H](N)C(=O)O; NMeNle = CCCC[C@H](NC)C(=O)O; ξR = N=C(N)NCCCC(N)C(=O)O; NMeA = CN[C@@H](C)C(=O)O; Orn = NCCC[C@H](N)C(=O)O; Dab = NCC[C@H](N)C(=O)O; Dap = NC[C@H](N)C(=O)O; Sar = CNCC(=O)O
# Legend:
# Human PD-L1/PD-1 = biological target: T1, Human PD-L1/PD-1 (Homo sapiens, UniProt Q9NZQ7); assay: HTRF PD-1-Ig/PD-L1-His binding assay (human PD-L1); details: cluster symbol; read-out: HTRF IC50 cluster
# T1 construct: made in house; host or cells: HEK293T
# T1 sequence (Q9NZQ7 with tags, fused parts or gaps): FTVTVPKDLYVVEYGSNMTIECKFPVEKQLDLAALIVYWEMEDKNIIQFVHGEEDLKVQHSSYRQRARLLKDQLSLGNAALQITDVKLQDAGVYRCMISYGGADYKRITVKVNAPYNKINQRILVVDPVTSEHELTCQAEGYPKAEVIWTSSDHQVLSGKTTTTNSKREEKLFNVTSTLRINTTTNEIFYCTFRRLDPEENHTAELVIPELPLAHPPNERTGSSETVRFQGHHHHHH
# Summary of the method: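 Readout: time-resolved FRET between Eu cryptate-labeled anti-Ig (1 nM final) and APC-labeled anti-His (20 nM final) antibodies. These detect interaction of Fc-fused PD-1 with His-tagged human PD-L1 in dPBS containing 0.1% BSA and 0.05% Tween-20.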
# [1] = biological target: T2, LK35.2-hPD-L1 cells / PE-labeled PD-1-Ig (Homo sapiens, UniProt Q9NZQ7); assay: LK35.2-hPD-L1 cell binding high-content screening assay; type: cell-based; details: cluster symbol, read-out: CBA IC50 cluster
# T2 construct: expressed in transfected cells; host or cells: LK35.2 mouse B cell line
# T2 sequence (Q9NZQ7 19-290): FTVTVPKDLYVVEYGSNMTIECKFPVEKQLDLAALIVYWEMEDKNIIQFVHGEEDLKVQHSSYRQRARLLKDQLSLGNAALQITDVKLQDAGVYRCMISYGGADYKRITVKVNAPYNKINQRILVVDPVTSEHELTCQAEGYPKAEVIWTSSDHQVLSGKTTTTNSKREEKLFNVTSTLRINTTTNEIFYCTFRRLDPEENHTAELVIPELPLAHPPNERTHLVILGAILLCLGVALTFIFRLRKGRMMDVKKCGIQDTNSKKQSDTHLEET
# Summary of the method: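 Readout: high-content imaging of PE-PD-1-Ig bound to LK35.2-hPD-L1 cells. Cells plated overnight (RPMI/10% FCS); compound + 1 nM PE-PD-1-Ig, 1 h, 37 °C; 3× dPBS wash before imaging.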
# [2] = cell line of CBA not given (LK35.2-hPD-L1 or 293T-hPD-L1)
# [3] = cell binding assay, cell line not given
SMILES,IC50 (Human PD-L1/PD-1) [nM],"IC50 [1, 2] [nM]","IC50 [1, 3] [nM]"
CCCC[C@H]1C(=O)N(C)[C@@H](CCCC)C(=O)N[C@@H](CCCNC(=N)N)C(=O)N[C@H](C(=O)NCC(N)=O)CSCC(=O)N[C@@H](Cc2ccccc2)C(=O)N(C)[C@@H](C)C(=O)N[C@@H](CC(N)=O)C(=O)N2CCC[C@H]2C(=O)N[C@@H](CC(N)=O)C(=O)N[C@@H](CC(C)C)C(=O)N(C)CC(=O)N[C@@H](Cc2c[nH]c3ccccc23)C(=O)N[C@@H](CO)C(=O)N[C@@H](Cc2c[nH]c3ccccc23)C(=O)N1C [Example 1063] ({CH2CO}-F[NMeA]NPNL[Sar]WSW[NMeNle][NMeNle]RCG-NH2; thioether N-14),> 30.5,> 74.3,–
CCCC[C@H]1C(=O)N(C)[C@@H](CCCC)C(=O)N[C@@H](CC(C)C)C(=O)N[C@H](C(=O)NCC(N)=O)CSCC(=O)N[C@@H](Cc2ccc(O)cc2)C(=O)N(C)[C@@H](C)C(=O)N[C@@H](CCN)C(=O)N2CCC[C@H]2C(=O)N[C@@H](Cc2c[nH]cn2)C(=O)N[C@@H](CCC(=O)O)C(=O)N2C[C@H](O)C[C@H]2C(=O)N[C@@H](Cc2c[nH]c3ccccc23)C(=O)N[C@@H](C(C)C)C(=O)N[C@@H](Cc2c[nH]c3ccccc23)C(=O)N1C [Example 5107] ({CH2CO}-Y[NMeA][Dab]PHE[Hyp]WVW[NMeNle][NMeNle]LCG-NH2; thioether N-14),6.76 to 30.3,–,4.78 to 72.9
CCCC[C@H]1C(=O)N(C)[C@@H](CCCC)C(=O)N[C@@H](CCCNC(=N)N)C(=O)N[C@H](C(=O)NCC(N)=O)CSCC(=O)N[C@@H](Cc2ccccc2)C(=O)N(C)[C@@H](C)C(=O)N[C@@H](CC(N)=O)C(=O)N2CCC[C@H]2C(=O)N[C@@H](CO)C(=O)N[C@@H](CC(C)C)C(=O)N(C)CC(=O)N[C@@H](Cc2c[nH]c3ccccc23)C(=O)N[C@@H](CO)C(=O)N[C@@H](Cc2c[nH]c3ccccc23)C(=O)N1C [Example 1088] ({CH2CO}-F[NMeA]NPSL[Sar]WSW[NMeNle][NMeNle]RCG-NH2; thioether N-14),6.76 to 30.3,4.78 to 72.9,–
CCCC[C@H]1C(=O)N(C)CC(=O)N[C@@H](CC(=O)O)C(=O)N[C@@H](C(C)C)C(=O)N(C)[C@@H](Cc2ccccc2)C(=O)N[C@@H](Cc2ccc(O)cc2)C(=O)N(C)CC(=O)N[C@@H](Cc2c[nH]c3ccccc23)C(=O)N[C@@H](Cc2ccc(CN)cc2)C(=O)N[C@@H](CC(C)C)C(=O)N[C@H](C(=O)NCC(N)=O)CSCC(=O)N[C@@H](Cc2ccccc2)C(=O)N(C)[C@@H](Cc2ccccc2)C(=O)N1C [Example 3514] ({CH2CO}-F[NMeF][NMeNle][Sar]DV[NMeF]Y[Sar]W[Phe(4-CH2NH2)]LCG-NH2; thioether N-13),6.76 to 30.3,–,4.78 to 72.9
CCCC[C@H]1C(=O)N(C)[C@@H](CCCC)C(=O)N[C@@H](CC(=O)O)C(=O)N[C@H](C(=O)NCC(N)=O)CSCC(=O)N[C@@H](Cc2ccc(O)cc2)C(=O)N(C)[C@@H](C)C(=O)N[C@@H](CC(=O)O)C(=O)N2CCC[C@H]2C(=O)N[C@@H](Cc2c[nH]cn2)C(=O)N[C@@H](CCCNC(=N)N)C(=O)N2C[C@H](O)CC2C(=O)N[C@@H](Cc2c[nH]c3ccccc23)C(=O)N[C@@H](CCCNC(=N)N)C(=O)N[C@@H](Cc2c[nH]c3ccccc23)C(=O)N1C (stereo partly drawn) [Example 1203] ({CH2CO}-Y[NMeA]DPHR[ξPro(4R-OH)]WRW[NMeNle][NMeNle]DCG-NH2; thioether N-14),6.76 to 30.3,0.158 to 4.71,–
CCCC[C@H]1C(=O)N(C)[C@@H](CCCC)C(=O)N[C@@H](CO)C(=O)NC(C(=O)NCC(N)=O)CSCC(=O)N[C@@H](Cc2ccc(O)cc2)C(=O)N(C)[C@@H](C)C(=O)N[C@@H](CC(N)=O)C(=O)N2CCC[C@H]2C(=O)N[C@@H](Cc2cnc[nH]2)C(=O)N[C@@H](CC(C)C)C(=O)N2C[C@H](O)C[C@H]2C(=O)N[C@@H](Cc2c[nH]c3ccccc23)C(=O)N[C@@H](CO)C(=O)N[C@@H](Cc2c[nH]c3ccccc23)C(=O)N1C (stereo partly shown) [Example 9029],6.76 to 30.3,–,0.158 to 4.71
"CC(C)C[C@@H]1NC(=O)[C@H](Cc2ccc(O)cc2)NC(=O)[C@H](Cc2c[nH]c3ccccc23)NC(=O)CN(C)C(=O)[C@H](Cc2ccc(O)cc2)NC(=O)[C@H](Cc2ccccc2)N(C)C(=O)[C@H](C(C)C)NC(=O)[C@H](CC(=O)O)NC(=O)CN(C)C(=O)[C@H](Cc2ccc(O)cc2)N(C)C(=O)[C@H](Cc2ccccc2)N(C)C(=O)[C@H](Cc2ccccc2)NC(=O)CSC[C@@H](C(=O)NCC(N)=O)NC1=O [Example 3060-A] (HELM PEPTIDE1{[O=C(C[*:3])[*:2]].F.[meF].[meY].[Sar].D.V.[meF].Y.[Sar].W.Y.L.C.G.[am]}$PEPTIDE1,PEPTIDE1,1:R3-14:R3$$$V2.0)",6.76 to 30.3,4.78 to 72.9,–

# Now from value to compound:
IC50 (Human PD-L1/PD-1) [nM],"IC50 [1, 2] [nM]","IC50 [1, 3] [nM]",SMILES
6.76 to 30.3,4.78 to 72.9,–,CCCC[C@H]1C(=O)N(C)CC(=O)N[C@@H](CC(=O)O)C(=O)N[C@@H](C(C)C)C(=O)N(C)[C@@H](Cc2ccccc2)C(=O)N[C@@H](Cc2c[nH]c3ccc(O)cc23)C(=O)N(C)CC(=O)N[C@@H](Cc2c[nH]c3ccccc23)C(=O)N[C@@H](Cc2ccc(O)cc2)C(=O)N[C@@H](CC(C)C)C(=O)N[C@H](C(=O)NCC(N)=O)CSCC(=O)N[C@@H](Cc2ccccc2)C(=O)N(C)[C@@H](Cc2ccccc2)C(=O)N1C [Example 3148] ({CH2CO}-F[NMeF][NMeNle][Sar]DV[NMeF][Trp(5-OH)][Sar]WYLCG-NH2; thioether N-13)
0.385 to 6.74,–,4.78 to 72.9,CCCC[C@H]1C(=O)N(C)[C@@H](CCCC)C(=O)N[C@@H](CCCNC(=N)N)C(=O)N[C@H](C(=O)NCC(N)=O)CSCC(=O)N[C@@H](Cc2ccc(O)cc2)C(=O)N(C)[C@@H](C)C(=O)N[C@@H](CC(N)=O)C(=O)N2CCC[C@H]2C(=O)N[C@@H](CN)C(=O)N[C@@H](CC(C)C)C(=O)N2C[C@H](O)C[C@H]2C(=O)N[C@@H](Cc2c[nH]c3ccccc23)C(=O)N[C@@H](CCC(=O)O)C(=O)N[C@@H](Cc2c[nH]c3ccccc23)C(=O)N1C [Example 5058] ({CH2CO}-Y[NMeA]NP[Dap]L[Hyp]WEW[NMeNle][NMeNle]RCG-NH2; thioether N-14)
0.385 to 6.74,–,4.78 to 72.9,CCCC[C@H]1C(=O)N(C)[C@@H](CCCC)C(=O)NC(CCCNC(=N)N)C(=O)N[C@H](C(=O)NCC(N)=O)CSCC(=O)N[C@@H](Cc2ccc(O)cc2)C(=O)N(C)[C@@H](C)C(=O)N[C@@H](CC(N)=O)C(=O)N2CCC[C@H]2C(=O)N[C@@H](CN)C(=O)N[C@@H](CC(C)C)C(=O)N2C[C@H](O)C[C@H]2C(=O)N[C@@H](Cc2c[nH]c3ccccc23)C(=O)N[C@@H](CO)C(=O)N[C@@H](Cc2c(-c3ccc(OCCC)cc3)[nH]c3ccccc23)C(=O)N1C (stereo partly shown) [Example 7005] ({CH2CO}-Y[NMeA]NP[Dap]L[Hyp]WS[X5][NMeNle][NMeNle][ξR]CG-NH2; thioether N-14)
0.385 to 6.74,–,0.158 to 4.71,CCCC[C@H]1C(=O)N(C)[C@@H](CCCC)C(=O)N[C@@H](CCCN)C(=O)N[C@H](C(=O)NCC(N)=O)CSCC(=O)N[C@@H](Cc2ccc(O)cc2)C(=O)N(C)[C@@H](C)C(=O)N[C@@H](CC(N)=O)C(=O)N2CCC[C@H]2C(=O)N[C@@H](CN)C(=O)N[C@@H](CC(C)C)C(=O)N2C[C@H](F)C[C@H]2C(=O)N[C@@H](Cc2c[nH]c3ccccc23)C(=O)N[C@@H](CO)C(=O)N[C@@H](Cc2c[nH]c3ccccc23)C(=O)N1C [Example 13003] ({CH2CO}-Y[NMeA]NP[Dap]L[Pro(trans-4-F)]WSW[NMeNle][NMeNle][Orn]CG-NH2; thioether N-14)
0.385 to 6.74,0.158 to 4.71,–,CCCC[C@H]1C(=O)N(C)[C@@H](CCCC)C(=O)N[C@@H](CCCNC(=N)N)C(=O)N[C@H](C(=O)NCC(N)=O)CSCC(=O)N[C@@H](Cc2ccc(O)cc2)C(=O)N(C)[C@@H](C)C(=O)N[C@@H](CC(N)=O)C(=O)N2CCC[C@H]2C(=O)N[C@@H](CN)C(=O)N[C@@H](CCC(=O)O)C(=O)N2CCC[C@H]2C(=O)N[C@@H](Cc2c[nH]c3ccccc23)C(=O)N[C@@H](CO)C(=O)N[C@@H](Cc2csc3ccccc23)C(=O)N1C [Example 1127] ({CH2CO}-Y[NMeA]NP[Dap]EPWS[Bta][NMeNle][NMeNle]RCG-NH2; thioether N-14)
0.385 to 6.74,0.158 to 4.71,–,CCCC[C@H]1C(=O)N(C)[C@@H](CCCC)C(=O)N[C@@H](CCCNC(=N)N)C(=O)N[C@H](C(=O)NCC(N)=O)CSCC(=O)N[C@@H](Cc2ccc(O)cc2)C(=O)N(C)[C@@H](C)C(=O)N[C@@H](CC(=O)O)C(=O)N2CCC[C@H]2C(=O)N[C@@H](Cc2cnc[nH]2)C(=O)N[C@@H](CC(C)C)C(=O)N2C[C@H](O)C[C@H]2C(=O)N[C@@H](Cc2c[nH]c3ccccc23)C(=O)N[C@@H](CO)C(=O)N[C@@H](Cc2c[nH]c3ccccc23)C(=O)N1C [Example 1166] ({CH2CO}-Y[NMeA]DPHL[Hyp]WSW[NMeNle][NMeNle]RCG-NH2; thioether N-14)
0.385 to 6.74,–,4.78 to 72.9,C=CC[C@@H]1NC(=O)[C@H](Cc2c[nH]c3ccccc23)NC(=O)[C@@H]2CCCN2C(=O)[C@H](CC(C)C)NC(=O)[C@H](Cc2cnc[nH]2)NC(=O)[C@@H]2CCCN2C(=O)[C@H](CC(N)=O)NC(=O)[C@H](C)N(C)C(=O)[C@H](Cc2ccc(O)cc2)NC(=O)CSC[C@@H](C(=O)NCC(N)=O)NC(=O)[C@H](C)NC(=O)[C@H](CCCC)N(C)C(=O)[C@H](CCCC)N(C)C(=O)[C@H](Cc2c[nH]c3ccccc23)NC1=O [Example 7020] ({CH2CO}-Y[NMeA]NPHLPW[AllylGly]W[NMeNle][NMeNle]ACG-NH2; thioether N-14)
